Where a chain is given by its changes, count along the chain named.
What was measured:
[1] = molecular target: T1, AtPPO1 V365L G404A L479N (SEQ ID NO.136) (Arabidopsis thaliana, UniProt P55826, G404A/L479N/V365L); assay: fluorescent Protoporphyrinogen Oxidase assay, crude extract; type: biochemical; details: read-out: percentage inhibition
T1 construct: made in house; host or cells: E. coli BL21 (DE3) hemG, crude extract
T1 sequence (P55826 35-537 V365L/G404A/L479N): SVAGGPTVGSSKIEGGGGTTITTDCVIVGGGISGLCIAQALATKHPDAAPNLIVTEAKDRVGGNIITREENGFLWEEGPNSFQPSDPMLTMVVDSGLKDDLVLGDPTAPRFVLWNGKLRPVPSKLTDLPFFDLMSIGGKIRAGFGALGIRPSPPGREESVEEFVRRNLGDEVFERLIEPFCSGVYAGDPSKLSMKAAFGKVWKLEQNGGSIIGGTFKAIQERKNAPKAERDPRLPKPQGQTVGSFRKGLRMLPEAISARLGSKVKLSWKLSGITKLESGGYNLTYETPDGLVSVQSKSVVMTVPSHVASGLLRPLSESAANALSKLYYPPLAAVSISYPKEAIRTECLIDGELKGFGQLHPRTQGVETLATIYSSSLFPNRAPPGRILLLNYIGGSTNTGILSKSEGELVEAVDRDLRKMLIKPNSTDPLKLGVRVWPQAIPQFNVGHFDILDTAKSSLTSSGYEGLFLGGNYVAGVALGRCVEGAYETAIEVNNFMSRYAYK

[2] = molecular target: T2, AtPPO1 V365L Y426V L479N (SEQ ID NO.126) (Arabidopsis thaliana, UniProt P55826, L479N/V365L/Y426V); assay: as above; type: biochemical; details: read-out: percentage inhibition
T2 construct: made in house; host or cells: E. coli BL21 (DE3) hemG, crude extract
T2 sequence (P55826 35-537 V365L/Y426V/L479N): T1 sequence (P55826 35-537 V365L/G404A/L479N) with A370G, Y392V

Structure (SMILES): CCOC(=O)C1(C)CC(c2cc(-n3c(=O)cc(C(F)(F)F)n(C)c3=O)c(F)cc2Cl)=NO1 (stereo not shown) [Herbicide C, 3-(2-chloro-4-fluoro-5-(3-methyl-2,6-dioxo-4-trifluoromethyl-3,6-dihydropyrimidin-1(2H)-yl)phenyl)-5-methyl-4,5-dihydroisoxazole-5-carboxylic acid ethyl ester]
- inhibition at 0.1 ppm [1]: 34%
- inhibition at 1 ppm [1]: 90%
- inhibition at 10 ppm [1]: 99%
- inhibition at 100 ppm [1]: 100%
- inhibition at 0.1 ppm [2]: 4%
- inhibition at 1 ppm [2]: 44%
- inhibition at 10 ppm [2]: 82%
- inhibition at 100 ppm [2]: 93%

Structure (SMILES): C#CCN1C(=O)C(F)(F)Oc2cc(F)c(-n3c(=O)n(C)c(=S)n(C)c3=O)cc21 [Herbicide B, trifludimoxazin]
- inhibition at 0.1 ppm [1]: 79%
- inhibition at 1 ppm [1]: 100%
- inhibition at 10 ppm [1]: 100%
- inhibition at 100 ppm [1]: 100%
- inhibition at 0.1 ppm [2]: 98%
- inhibition at 1 ppm [2]: 100%
- inhibition at 10 ppm [2]: 100%
- inhibition at 100 ppm [2]: 100%

Structure (SMILES): CCOC(=O)[C@]1(C)CC(c2cc(-n3c(=O)n(C)c(=S)n(C)c3=O)c(F)cc2Cl)=NO1 [Herbicide D, ethyl (5S)-3-[2-chloro-5-(3,5-dimethyl-2,6-dioxo-4-thioxo-1,3,5-triazinan-1-yl)-4-fluoro-phenyl]-5-methyl-4H-isoxazole-5-carboxylate]
- inhibition at 0.1 ppm [1]: 4%
- inhibition at 1 ppm [1]: 75%
- inhibition at 10 ppm [1]: 99%
- inhibition at 100 ppm [1]: 100%
- inhibition at 0.1 ppm [2]: 12%
- inhibition at 1 ppm [2]: 33%
- inhibition at 10 ppm [2]: 89%
- inhibition at 100 ppm [2]: 98%

Structure (SMILES): CCOC(=O)COc1ncccc1Oc1cc(-n2c(=O)cc(C(F)(F)F)n(C)c2=O)c(F)cc1Cl [Herbicide A, epyrifenacil]
- inhibition at 0.1 ppm [1]: 58%
- inhibition at 1 ppm [1]: 95%
- inhibition at 10 ppm [1]: 100%
- inhibition at 100 ppm [1]: 100%
- inhibition at 0.1 ppm [2]: 0%
- inhibition at 1 ppm [2]: 36%
- inhibition at 10 ppm [2]: 73%
- inhibition at 100 ppm [2]: 90%

Structure (SMILES): CC(C)N(C)S(=O)(=O)NC(=O)c1cc(-n2c(=O)cc(C(F)(F)F)n(C)c2=O)c(F)cc1Cl [Herbicide E, saflufenacil]
- inhibition at 0.1 ppm [1]: 0%
- inhibition at 1 ppm [1]: 39%
- inhibition at 10 ppm [1]: 86%
- inhibition at 100 ppm [1]: 100%
- inhibition at 0.1 ppm [2]: 0%
- inhibition at 1 ppm [2]: 22%
- inhibition at 10 ppm [2]: 77%
- inhibition at 100 ppm [2]: 94%
